Experimental data taken from patent US20180057505A1, “BICYCLIC HETEROARYL COMPOUNDS USEFUL AS INHIBITORS OF THE PAR-2 SIGNALING PATHWAY” (VERTEX PHARMACEUTICALS INCORPORATED, priority 2015, published 2018).

Columns and labels:
Assay type in all cases: cell-based
[1] = test system: Thrombin-stimulated Ca2+ response in HT-29 cells; experiment: Ca FLIPR TETRA assay, ANTAGONIST mode, activator 1 U/mL Thrombin; conditions: HT-29 cells, activator 1 U/mL Thrombin
Method in brief: (§1)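 HT-29 cells in 1% FBS/McCoy's overnight, loaded with FLIPR Calcium 5 dye (45 min 37 °C, 15 min r.t.); compounds added and read for intrinsic Ca2+ activation, then after 30 min r.t. stimulated with fixed activator: 8 μM SLIGKV, 0.6 μM UTP, 1 U/mL thrombin or 3.1 U/mL trypsin (final).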

[2] = molecular target: T1, PAR2 (HT-29 cells) (Homo sapiens, UniProt P55085); experiment: Ca FLIPR TETRA assay, ANTAGONIST mode, activator 8 μM SLIGKV; conditions: HT-29 cells, activator 8 μM SLIGKV
T1 construct: host or cells: HT-29
T1 sequence (P55085 26-397): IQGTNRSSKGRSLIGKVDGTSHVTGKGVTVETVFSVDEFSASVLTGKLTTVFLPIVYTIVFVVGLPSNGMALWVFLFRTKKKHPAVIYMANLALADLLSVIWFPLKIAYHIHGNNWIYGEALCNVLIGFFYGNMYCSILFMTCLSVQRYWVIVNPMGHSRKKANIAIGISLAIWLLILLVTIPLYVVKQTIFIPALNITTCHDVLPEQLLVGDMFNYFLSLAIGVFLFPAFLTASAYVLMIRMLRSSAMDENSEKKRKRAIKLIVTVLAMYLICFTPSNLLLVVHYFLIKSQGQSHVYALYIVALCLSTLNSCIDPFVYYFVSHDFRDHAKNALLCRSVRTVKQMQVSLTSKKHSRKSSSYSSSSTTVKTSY
Method in brief: as §1

[3] = molecular target: T1, PAR2 (HT-29 cells); experiment: Ca FLIPR TETRA assay, ANTAGONIST mode, activator 3.1 U/mL trypsin; conditions: for IC50: HT-29 cells, activator 3.1 U/mL trypsin
Method in brief: as §1

[4] = test system: UTP-stimulated Ca2+ response in HT-29 cells; experiment: Ca FLIPR TETRA assay, ANTAGONIST mode, activator 0.6 μM UTP; conditions: HT-29 cells, activator 0.6 μM UTP
Method in brief: as §1

[5] = Method A: maximal concentration of antagonist 0.1, 1 or 2 μM
[6] = maximal antagonist concentration per Method (A: 0.1, 1 or 2 μM; B: 50 μM)

Row | Compound | IC50 [1] [nM] | IC50 [2, 5] [nM] | IC50 [3, 5] [nM] | IC50 [4] [nM] | IC50 ([1]; Homo sapiens) [nM] | IC50 ([4]; Homo sapiens) [nM] | IC50 [2, 6] [nM] | IC50 [3, 6] [nM] | Trypsin, % @ 50 ([3]; @ 50 (μM)) [% @ 50]
1 | CC(C)(C)c1cc(C2CCC(F)(F)CC2)nc2cc(C(=O)N3CCN(C(=O)c4nnc[nH]4)CC3(C)C)oc12 [Example I-311] | > 2000 | 81 | 83 | > 2000 | – | – | – | – | –
2 | CC(C)(C)c1cc(-c2ccc(Cl)c(F)c2)nc2cc(C(=O)N3CCN(c4cccc(C(=O)NS(C)(=O)=O)n4)CC3(C)C)oc12 [Example I-540] | – | 0.3 | 0.3 | – | > 2000 | > 2000 | – | – | –
3 | Cc1cc(C(=O)N2CCN(C(=O)c3cc4nc(-c5ccc(Cl)cc5)cc(C(C)(C)C)c4o3)C(C)(C)C2)[nH]n1 [Example I-177] | – | – | – | – | > 1000 | > 1000 | 1.4 | 2 | –
4 | CC(C)c1cc(-c2ccc(F)cc2)nc2cc(C(=O)N3CCN(S(=O)(=O)c4cn(C)cn4)CC3(C)C)oc12 [Example I-144] | – | – | – | – | > 1000 | > 1000 | 24 | 31 | –
5 | CC(C)(C)c1cc(-c2ccc(F)cc2)nc2cc(C(=O)N3CCN(c4cn[nH]c4)C(=O)C3(C)C)oc12 [Example I-182] | – | – | – | – | > 1000 | > 1000 | 1.1 | 5.8 | –
6 | CCC(CC)C(=O)N1CCN(C(=O)c2cc3nc(-c4ccc(F)cc4)cc(C(C)C)c3o2)C[C@@H]1C [Example I-82] | – | – | – | – | > 50000 | 47000 | 180 | – | 70
7 | Cc1nnc(C(=O)N2CCN(C(=O)c3cc4nc(-c5ccc(F)c(C)c5)cc(C(C)(C)C)c4o3)C(C)(C)C2)[nH]1 [Example I-166] | – | – | – | – | > 1000 | > 1000 | 1.3 | 3.3 | –
8 | CC(C)(C)c1cc(-c2ccc(F)cc2)nc2cc(C(=O)N3CCN(C(=O)c4ncccn4)CC3(C)C)oc12 [Example I-184] | – | – | – | – | > 1000 | > 1000 | 5.7 | 12 | –
9 | CC(C)c1cc(-c2ccc(F)cc2)nc2cc(C(=O)N3CCN(C(=O)[C@H]4C[C@@](O)(C(F)(F)F)C4)CC3(C)C)oc12 [Example I-137] | – | – | – | – | 500 | 830 | 7.8 | 9.4 | –
10 | CC(C)c1cc(-c2ccc(F)cc2)nc2cc(C(=O)N3CCN(C(=O)C4(O)CCC4)CC3(C)C)oc12 [Example I-8] | – | – | – | – | 3600 | 20000 | 29 | 28 | –
11 | CC1(C)CCC(c2cc(C(C)(C)C)c3oc(C(=O)N4CCN(C(=O)[C@H]5CC[C@@](C)(C(=O)OCOP(=O)(O)O)CC5)CC4(C)C)cc3n2)CC1 [Example I-509] | – | 0.2 | 0.5 | – | > 2000 | > 2000 | – | – | –
12 | CC(C)C[C@@H](O)C(=O)N1CCN(C(=O)c2cc3nc(-c4ccc(F)cc4)cc(C4(C)CC4)c3o2)C[C@@H]1C [Example I-113] | – | – | – | – | 17000 | 12000 | 11 | 2 | –
13 | CC(C)(C)c1cc(-c2ccc(Cl)c(F)c2)nc2cc(C(=O)N3CCNC(=O)CC3(C)C)oc12 [Example I-336] | – | 6.3 | 9.6 | – | > 2000 | > 2000 | – | – | –
14 | CC(C)(C)c1cc(-c2ccc(Cl)c(F)c2)nc2cc(C(=O)N3CCN(C(=O)CCP(C)(=O)O)CC3(C)C)oc12 [Example I-376] | – | 280 | 290 | – | > 2000 | > 2000 | – | – | –
15 | CC(C)(CCC(=O)N1CCN(C(=O)c2cc3nc(-c4ccc(Cl)cc4)cc(C(C)(C)C)c3o2)C(C)(C)C1)C(=O)O [Example I-366] | – | 0.8 | 1.1 | – | > 2000 | > 2000 | – | – | –
16 | CC(C)(C)c1cc(-c2ccc(F)cc2)nc2cc(C(=O)N3CCN(CC(=O)O)C(=O)C3(C)C)oc12 [Example I-209] | – | – | – | – | > 1000 | > 1000 | 220 | 370 | –

Row | Compound | IC50 [1] [nM] | IC50 [2, 5] [nM] | IC50 [3, 5] [nM] | IC50 [4] [nM] | IC50 ([1]; Homo sapiens) [nM] | IC50 ([4]; Homo sapiens) [nM] | IC50 [2, 6] [nM] | IC50 [3, 6] [nM] | Trypsin, % @ 50 ([3]; @ 50 (μM)) [% @ 50]
17 | CC(C)c1cc(-c2ccc(F)cc2)nc2cc(C(=O)N3CCN(C(=O)C4CCOC4)[C@@H](C)C3)oc12 (stereo partly shown) [Example I-80] | – | – | – | – | 19000 | 20000 | 1600 | 4700 | –
18 | CC(C)c1cc(-c2ccc(F)cc2)nc2cc(C(=O)N3CCN(C(=O)C4(O)CCC4)C[C@@H]3C)oc12 [Example I-102] | – | – | – | – | 16000 | 5400 | 4700 | 5200 | –
19 | CC(C)(C)c1cc(C2CCCC2)nc2cc(C(=O)N3CCNC(=O)C3(C)C)oc12 [Example I-215] | – | – | – | – | > 1000 | > 1000 | 96 | 300 | –
20 | CCC(C)C(=O)N1CCN(C(=O)c2cc3nc(-c4ccc(F)cc4)cc(C4(C)CC4)c3o2)C(C)(C)C1 (stereo not shown) [Example I-44] | – | – | – | – | > 40000 | 36000 | 2.9 | 3.2 | –
21 | CC(C)c1cc(-c2ccc(F)cc2)nc2cc(C(=O)N3CCN(C(=O)[C@H](C)O)CC3(C)C)oc12 [Example I-15] | – | – | – | – | 14000 | 14000 | 230 | 190 | –
22 | CC1(c2cc(-c3ccc(F)cc3)nc3cc(C(=O)N4CCN(C(=O)C5C(C)(C)C5(C)C)CC4(C)C)oc23)CC1 [Example I-50] | – | – | – | – | > 50000 | > 50000 | 4.9 | 5.1 | –
23 | CC1(C)CCC(c2cc(C(C)(C)C)c3oc(C(=O)N4CCN(c5nc(C(=O)O)ccc5F)CC4(C)C)cc3n2)CC1 [Example I-503] | > 2000 | 0.2 | 0.3 | > 2000 | – | – | – | – | –
24 | CC(C)c1cc(-c2ccc(F)cc2)nc2cc(C(=O)N3CCN(C(=O)C(C)(O)C(F)(F)F)CC3(C)C)oc12 (stereo not shown) [Example I-68] | – | – | – | – | 29000 | 21000 | 10 | 26 | –
25 | CC1(O)CC(C(=O)N2CCN(C(=O)c3cc4nc(N5CCC(F)(F)C5)cc(C(C)(C)C)c4o3)C(C)(C)C2)C1 (stereo not shown) [Example I-439] | – | 78 | 96 | – | > 2000 | > 2000 | – | – | –
26 | CC(C)(C)c1cc(C2CCC(F)(F)CC2)nc2cc(C(=O)N3CCN(C(=O)[C@H]4C[C@@](C)(O)C4)CC3(C)C)oc12 [Example I-234] | – | – | – | – | > 2000 | > 2000 | 22 | 38 | –
27 | CC1(c2cc(-c3ccc(F)cc3)nc3cc(C(=O)N4CCN(C(=O)C5CCOCC5)CC4(C)C)oc23)CC1 [Example I-54] | – | – | – | – | 9600 | 7900 | 4.5 | 6.3 | –
28 | CC(C)(C)c1cc(-c2ccc(Cl)cc2)nc2cc(C(=O)N3CCN(c4ccc(C(=O)O)nc4)CC3(C)C)oc12 [Example I-274] | – | – | – | – | > 2000 | > 2000 | 61 | 34 | –
29 | CC(C)(C)c1cc(-c2ccc(Cl)c(F)c2)nc2cc(C(=O)N3CCN(c4ncncc4C(=O)O)CC3(C)C)oc12 [Example I-519] | – | 14 | 26 | – | > 2000 | > 2000 | – | – | –
30 | Cc1nnc(C(=O)N2CCN(C(=O)c3cc4nc(-c5ccc(F)cc5)cc(C(C)(C)C)c4o3)C(C)(C)C2)o1 [Example I-183] | – | – | – | – | > 1000 | > 1000 | 2.6 | 9.1 | –
31 | CC1(C)CCC(c2cc(C(C)(C)C)c3oc(C(=O)N4CCN(C(=O)CCCC(=O)O)CC4(C)C)cc3n2)CC1 [Example I-378] | – | 1.7 | 3.5 | – | > 2000 | > 2000 | – | – | –
